Assay results taken from PubChem BioAssay (NCI).
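Each compound was tested at five concentrations against cells in 96-well plates for 48 hours. TGI marks complete inhibition of growth.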

Each compound was assayed on NCI-H23 lung (assay: inhibition of tumour cell growth, NCI panel, 48 h).

O=c1[nH][nH]c(=O)n1Cc1cccc(Cn2c(=O)[nH][nH]c2=O)c1 and CCOC(=O)C1(Cc2ccc3c(c2)CCC3)Cc2cc3c(cc2C1=O)CCC3 (stereo not drawn) cannot be ordered by TGI: > 100 µM for the first, > 100 µM for the second.

For CC1=C(C(=O)OCc2ccncc2)C(C2=C(C)SCCS2)C(C(=O)OCc2ccncc2)=C(C)N1, the TGI was 76.5 µM.

Each compound was assayed on NCI-H460 lung (assay: inhibition of tumour cell growth, NCI panel, 48 h).

c1ccc(NNC2=NCCN2)cc1 and O=C1c2scc(-c3ccccc3)c2-n2cccc21 cannot be ordered by TGI: > 100 µM for the first, > 100 µM for the second.

O=c1[nH][nH]c(=O)n1Cc1cccc(Cn2c(=O)[nH][nH]c2=O)c1 and CCOC(=O)C1(Cc2ccc3c(c2)CCC3)Cc2cc3c(cc2C1=O)CCC3 (stereo not drawn) cannot be ordered by TGI: > 100 µM for the first, > 100 µM for the second.

Compound CC1=C(C(=O)OCc2ccncc2)C(C2=C(C)SCCS2)C(C(=O)OCc2ccncc2)=C(C)N1 has a TGI of 73.5 µM.

The compounds below were run on NCI-H522 lung (assay: inhibition of tumour cell growth, NCI panel, 48 h).

First: c1ccc(NNC2=NCCN2)cc1
Second: O=C1c2scc(-c3ccccc3)c2-n2cccc21
The TGI of the first is higher: > 100 µM for the first, 25.2 µM for the second.

O=c1[nH][nH]c(=O)n1Cc1cccc(Cn2c(=O)[nH][nH]c2=O)c1 and CCOC(=O)C1(Cc2ccc3c(c2)CCC3)Cc2cc3c(cc2C1=O)CCC3 (stereo not drawn) cannot be ordered by TGI: > 100 µM for the first, > 100 µM for the second.

With CC1=C(C(=O)OCc2ccncc2)C(C2=C(C)SCCS2)C(C(=O)OCc2ccncc2)=C(C)N1 the TGI was 54 µM.

The compounds below were run on NCI/ADR-RES ovarian (assay: inhibition of tumour cell growth, NCI panel, 48 h).

Going from c1ccc(NNC2=NCCN2)cc1 to O=C1c2scc(-c3ccccc3)c2-n2cccc21, the TGI falls from > 100 µM to 35.4 µM.

O=c1[nH][nH]c(=O)n1Cc1cccc(Cn2c(=O)[nH][nH]c2=O)c1 and CCOC(=O)C1(Cc2ccc3c(c2)CCC3)Cc2cc3c(cc2C1=O)CCC3 (stereo not drawn) cannot be ordered by TGI: > 100 µM for the first, > 100 µM for the second.

In the case of CC1=C(C(=O)OCc2ccncc2)C(C2=C(C)SCCS2)C(C(=O)OCc2ccncc2)=C(C)N1, the TGI is reported as > 100 µM.

The compounds below were run on OVCAR-3 ovarian (assay: inhibition of tumour cell growth, NCI panel, 48 h).

First: c1ccc(NNC2=NCCN2)cc1
Second: O=C1c2scc(-c3ccccc3)c2-n2cccc21
The TGI of the first is higher: > 100 µM for the first, 38.1 µM for the second.

O=c1[nH][nH]c(=O)n1Cc1cccc(Cn2c(=O)[nH][nH]c2=O)c1 and CCOC(=O)C1(Cc2ccc3c(c2)CCC3)Cc2cc3c(cc2C1=O)CCC3 (stereo not drawn) cannot be ordered by TGI: > 100 µM for the first, > 100 µM for the second.

CC1=C(C(=O)OCc2ccncc2)C(C2=C(C)SCCS2)C(C(=O)OCc2ccncc2)=C(C)N1 was tested, and the TGI was 38.8 µM.

What follows are compounds tested on OVCAR-4 ovarian (assay: inhibition of tumour cell growth, NCI panel, 48 h).

c1ccc(NNC2=NCCN2)cc1 and O=C1c2scc(-c3ccccc3)c2-n2cccc21 cannot be ordered by TGI: > 100 µM for the first, > 100 µM for the second.

O=c1[nH][nH]c(=O)n1Cc1cccc(Cn2c(=O)[nH][nH]c2=O)c1 and CCOC(=O)C1(Cc2ccc3c(c2)CCC3)Cc2cc3c(cc2C1=O)CCC3 (stereo not drawn) cannot be ordered by TGI: > 100 µM for the first, > 100 µM for the second.

For CC1=C(C(=O)OCc2ccncc2)C(C2=C(C)SCCS2)C(C(=O)OCc2ccncc2)=C(C)N1, the TGI was > 100 µM.

What follows are compounds tested on OVCAR-5 ovarian (assay: inhibition of tumour cell growth, NCI panel, 48 h).

First: c1ccc(NNC2=NCCN2)cc1
Second: O=C1c2scc(-c3ccccc3)c2-n2cccc21
The TGI of the first is higher: > 100 µM for the first, 48 µM for the second.

O=c1[nH][nH]c(=O)n1Cc1cccc(Cn2c(=O)[nH][nH]c2=O)c1 and CCOC(=O)C1(Cc2ccc3c(c2)CCC3)Cc2cc3c(cc2C1=O)CCC3 (stereo not drawn) cannot be ordered by TGI: > 100 µM for the first, > 100 µM for the second.

For CC1=C(C(=O)OCc2ccncc2)C(C2=C(C)SCCS2)C(C(=O)OCc2ccncc2)=C(C)N1, the TGI was > 100 µM.

What follows are compounds tested on OVCAR-8 ovarian (assay: inhibition of tumour cell growth, NCI panel, 48 h).

Compared with c1ccc(NNC2=NCCN2)cc1, O=C1c2scc(-c3ccccc3)c2-n2cccc21 is lower in TGI: > 100 µM for the first, 27.4 µM for the second.

O=c1[nH][nH]c(=O)n1Cc1cccc(Cn2c(=O)[nH][nH]c2=O)c1 and CCOC(=O)C1(Cc2ccc3c(c2)CCC3)Cc2cc3c(cc2C1=O)CCC3 (stereo not drawn) cannot be ordered by TGI: > 100 µM for the first, > 100 µM for the second.

CC1=C(C(=O)OCc2ccncc2)C(C2=C(C)SCCS2)C(C(=O)OCc2ccncc2)=C(C)N1 was tested, and the TGI was > 100 µM.

The compounds below were run on PC-3 prostate (assay: inhibition of tumour cell growth, NCI panel, 48 h).

First: c1ccc(NNC2=NCCN2)cc1
Second: O=C1c2scc(-c3ccccc3)c2-n2cccc21
The TGI of the first is higher: > 100 µM for the first, 41.2 µM for the second.

O=c1[nH][nH]c(=O)n1Cc1cccc(Cn2c(=O)[nH][nH]c2=O)c1 and CCOC(=O)C1(Cc2ccc3c(c2)CCC3)Cc2cc3c(cc2C1=O)CCC3 (stereo not drawn) cannot be ordered by TGI: > 100 µM for the first, > 100 µM for the second.

Compound CC1=C(C(=O)OCc2ccncc2)C(C2=C(C)SCCS2)C(C(=O)OCc2ccncc2)=C(C)N1 has a TGI of 52.4 µM.

Each compound was assayed on RPMI-8226 leukemia (assay: inhibition of tumour cell growth, NCI panel, 48 h).

Compared with c1ccc(NNC2=NCCN2)cc1, O=C1c2scc(-c3ccccc3)c2-n2cccc21 is lower in TGI: > 100 µM for the first, 34.1 µM for the second.

O=c1[nH][nH]c(=O)n1Cc1cccc(Cn2c(=O)[nH][nH]c2=O)c1 and CCOC(=O)C1(Cc2ccc3c(c2)CCC3)Cc2cc3c(cc2C1=O)CCC3 (stereo not drawn) cannot be ordered by TGI: > 100 µM for the first, > 100 µM for the second.

The compounds below were run on RXF 393 renal (assay: inhibition of tumour cell growth, NCI panel, 48 h).

Compared with O=c1[nH][nH]c(=O)n1Cc1cccc(Cn2c(=O)[nH][nH]c2=O)c1, O=C1c2scc(-c3ccccc3)c2-n2cccc21 is lower in TGI: > 100 µM for the first, 29.9 µM for the second.

For CC1=C(C(=O)OCc2ccncc2)C(C2=C(C)SCCS2)C(C(=O)OCc2ccncc2)=C(C)N1, the TGI was 27.4 µM.

These compounds were tested on SF-268 CNS (assay: inhibition of tumour cell growth, NCI panel, 48 h).

Compared with c1ccc(NNC2=NCCN2)cc1, O=C1c2scc(-c3ccccc3)c2-n2cccc21 is lower in TGI: > 100 µM for the first, 30.3 µM for the second.

O=c1[nH][nH]c(=O)n1Cc1cccc(Cn2c(=O)[nH][nH]c2=O)c1 and CCOC(=O)C1(Cc2ccc3c(c2)CCC3)Cc2cc3c(cc2C1=O)CCC3 (stereo not drawn) cannot be ordered by TGI: > 100 µM for the first, > 100 µM for the second.

CC1=C(C(=O)OCc2ccncc2)C(C2=C(C)SCCS2)C(C(=O)OCc2ccncc2)=C(C)N1 was tested, and the TGI was > 100 µM.

These compounds were tested on SF-295 CNS (assay: inhibition of tumour cell growth, NCI panel, 48 h).

First: c1ccc(NNC2=NCCN2)cc1
Second: O=C1c2scc(-c3ccccc3)c2-n2cccc21
The TGI of the first is higher: > 100 µM for the first, 36 µM for the second.

First: CC1=C(C(=O)OCc2ccncc2)C(C2=C(C)SCCS2)C(C(=O)OCc2ccncc2)=C(C)N1
Second: CCOC(=O)C1(Cc2ccc3c(c2)CCC3)Cc2cc3c(cc2C1=O)CCC3 (stereo not drawn)
The TGI of the first is lower: 38 µM for the first, > 100 µM for the second.

These compounds were tested on SF-539 CNS (assay: inhibition of tumour cell growth, NCI panel, 48 h).

First: c1ccc(NNC2=NCCN2)cc1
Second: CC1=C(C(=O)OCc2ccncc2)C(C2=C(C)SCCS2)C(C(=O)OCc2ccncc2)=C(C)N1
The TGI of the first is higher: > 100 µM for the first, 33 µM for the second.

O=c1[nH][nH]c(=O)n1Cc1cccc(Cn2c(=O)[nH][nH]c2=O)c1 and CCOC(=O)C1(Cc2ccc3c(c2)CCC3)Cc2cc3c(cc2C1=O)CCC3 (stereo not drawn) cannot be ordered by TGI: > 100 µM for the first, > 100 µM for the second.

Each compound was assayed on SK-MEL-2 melanoma (assay: inhibition of tumour cell growth, NCI panel, 48 h).

Compared with c1ccc(NNC2=NCCN2)cc1, O=C1c2scc(-c3ccccc3)c2-n2cccc21 is lower in TGI: > 100 µM for the first, 30.7 µM for the second.

O=c1[nH][nH]c(=O)n1Cc1cccc(Cn2c(=O)[nH][nH]c2=O)c1 and CCOC(=O)C1(Cc2ccc3c(c2)CCC3)Cc2cc3c(cc2C1=O)CCC3 (stereo not drawn) cannot be ordered by TGI: > 100 µM for the first, > 100 µM for the second.

The compounds below were run on SK-MEL-28 melanoma (assay: inhibition of tumour cell growth, NCI panel, 48 h).

In the case of c1ccc(NNC2=NCCN2)cc1, the TGI is reported as > 100 µM.
